The values below come from paper PMC9460038, “Antigiardial Activity of Foeniculum vulgare Hexane Extract and Some of Its Constituents” (Plants, 2022).

Data set [1] relates to G. duodenalis trophozoites. The data set can be described thus: Antigiardial activity, vial microassay (growth inhibition of trophozoites, 24 h). The note with it: for inhibition at 300 µg/mL / IC50: Giardia duodenalis; for inhibition at 300 µg/mL: read-out: % Inhibition at 300 μg/mL; for % Inhibition at 300 μg/mL: G. duodenalis trophozoites; for G. duodenalis IC50 (IC95%): trophozoites, Probit, 95% confidence limits in brackets.
Experimental: G. duodenalis strain 0989: IMSS was used. G. duodenalis was cultured in TYI-S-33 media supplemented with bile, as previously described [26]. G. duodenalis trophozoites were sub-cultured three times a week. Parasites used in the assays to determine drug susceptibility were harvested when cultures reached the middle of their logarithmic growth phase.
The concentration of all standard drugs was adjusted to 10 mg/mL. Metronidazole (used as a positive control), and pure compounds were dissolved in (DMSO). All stock solutions were stored at –20 °C until use. Before use in the assays, serial two-fold dilutions of the stock solutions were made in basal TYI medium (without serum). Fifty micro liters of each solution was added into 1 mL glass screw-capped cylindrical vials with a conical interior (Wheaton vial). All vials were filled with 950 μL of a freshly prepared parasite suspension in TYI-S-33 medium plus 10 % bovine serum. G. duodenalis was tested at density of 2 × 10^5 trophozoites/mL. All vials were incubated at 36 °C for 24 h. The vials were then chilled on iced water for 20 min, and the number of trophozoites per milliliter in each tube were counted using a hemocytometer (Neubauer cell-counter chamber) [29]. The percentage of growth inhibition with respect to untreated controls was then determined.
All experiments were performed in triplicate and in at least three independent bioassays (n = 9 cultures for each analyzed compound). The data were analyzed using GraphPad Prism software version 5.0 (USA). The half-maximum inhibitory concentration (IC50) of each drug was calculated by Probit analysis and 95% confidence limits were calculated.

The test system of a further data set is Vero cells. Kind of data set: Cytotoxic activity on Vero cell line (Trypan blue, 24 h). The class given is cell-based. The note with it: for IC50: Chlorocebus sabaeus, read-out: Vero Cells IC50 (IC95%); for IC50 / Vero Cells IC50 (IC95%): 24 h; for Selectivity Index (SI): ratio of IC50 in Vero cells to IC50 in G. duodenalis. The procedure: Cytotoxicity assay was performed on Vero cell line (ATCC CCL-81), as previously described. Briefly, Vero cells were cultivated in Roswell Park Memorial Institute (RPMI) medium supplemented with 10% fetal bovine serum (FBS). […] Each compound was dissolved in dimethyl sulfoxide (DMSO) and sterilized by filtration, and brought to final concentrations of 487, 243.5, 121.75 and 60.875 μg/mL with RPMI medium supplemented with 10% FBS. The cell suspension was adjusted to 1 × 10^4 cells/mL with RPMI medium supplemented with 10% FBS. Cell suspension (200 μL) was placed into a 96-well plate and incubated at 37 °C in a 5% CO2 atmosphere for 24 h. Each compound solution was added to each well containing the Vero cells and incubated for 24 h. The assay was carried out in triplicate. The number of cells were determined in a Neubauer chamber, while the percentage of viable cells was measured with the Trypan blue staining method.
The SI is the ratio of the IC50 concentration in host cells (Vero cells) to that in parasite (G. duodenalis).

For data set [2] the following is noted: source not stated; cited from earlier work.
The test system of data set [3] is Mycobacterium tuberculosis H37Rv. Set-up: method as in PMID 22797778. The following applies: sensitive strain H37Rv; cited from earlier work.
The mark [4] stands for this setting: read-out: G. duodenalis IC50 (IC95%), trophozoites, 24 h, Probit, 95% confidence limits in brackets.
The mark [5] stands for this setting: Vero cells, Probit, 95% confidence limits in brackets.

Converted amounts (≈) assume the structure as drawn. Like-named read-outs stand apart in the source and are kept apart here.

In the case of `Oc1cccc(O)c1` [1,3-Benzenediol], the inhibition at 300 µg/mL in data set [1] turned out to be 56%. For the same compound, the results for the IC50 (in data set [1] (setting [4]); in the data set on Vero cells (setting [5])) were 169 µg/mL (≈ 1530 µM) and 438 µg/mL (≈ 3980 µM), respectively. For the same compound, the “Selectivity Index (SI)” value in the data set on Vero cells was 2.5.
With `C=C1[C@H]2CC[C@H](C2)C1(C)C` [(1R,4S) (+)-Camphene], in data set [1], the “% Inhibition at 300 μg/mL” value is 61% and the “G. duodenalis IC50 (IC95%)” value is 181.1 (158.1–207.9) μg/mL. Besides, the “Vero Cells IC50 (IC95%)” value in the data set with Vero cells (setting [5]) is reported as 494.3 (492.1–496.4) μg/mL.
As to `CC1(C)C(=O)[C@]2(C)CCC1C2` [(R) (−)-Fenchone], in data set [1], the “% Inhibition at 300 μg/mL” value was 6.5%.
Turning to `CC(C)=CCC[C@@H](C)CCO` [(R)- (+)-β-Citronellol], the “% Inhibition at 300 μg/mL” value in data set [1] is 38%.
Same read-out and setting: the same measure for `CC1(C)C(=O)[C@@]2(C)CCC1C2` [(S) (+)-Fenchone]: 16%.
Turning to `CC(C)[C@]12CC(=O)[C@H](C)[C@H]1C2` [(−)-α-Tujone], the “% Inhibition at 300 μg/mL” value in data set [1] is recorded as 14%.
`C=CCc1ccc(OC)cc1` [Estragole]: the inhibition at 300 µg/mL in data set [1] turned out to be 49%. In addition, the IC50 in data set [1] (read-out: G. duodenalis IC50 (IC95%)) was 150 µg/mL (≈ 1010 µM); in the data set on Vero cells (Vero), 259 µg/mL (≈ 1750 µM). Besides, the “Selectivity Index (SI)” value with Vero cells came to 1.7.
Regarding `CC(=O)OC1C2(C)CCC(C2)C1(C)C` (stereo not shown) [Fenchylacetate], the “% Inhibition at 300 μg/mL” value in data set [1] amounted to 38.5%.
Turning to `Cc1ncc([N+](=O)[O-])n1CCO` [Metronidazole, reference compound], in data set [1], the inhibition at 300 µg/mL is 100%. Moreover, the values for the IC50 (in data set [1] (setting [4]); with Vero cells (setting [5])) were 0.5 µg/mL (≈ 2.92 µM) and 83.5 µg/mL (≈ 488 µM), respectively.
On to `CCCCCCCC/C=C\CCCCCCCC(=O)O` [Oleic acid], for which, in data set [1], the inhibition at 300 µg/mL worked out at 24%.
As to `CC(C)(O)C(C)(C)O` [Pinacol], in data set [1], the inhibition at 300 µg/mL stood at 2%.
Regarding `CC1=CCC(=C(C)C)CC1` [Terpinolene], the inhibition at 300 µg/mL in data set [1] worked out at 30%.
For `CCCCCC/C=C/C=C/C=O` [Trans, trans-2,4-undecadienal, trans, trans-2,4-undecadienal], in data set [2], the “log P” value is on record as 3.8. Besides, in data set [1], the inhibition at 300 µg/mL is 97% and the “G. duodenalis IC50 (IC95%)” value is reported as 72.1 (57.7–90.1) μg/mL. For the same compound, the IC50 in data set [1] (setting [4]) worked out at 72.1 µg/mL (≈ 434 µM). Moreover, the IC50 in the data set with Vero cells (setting [5]) amounted to 589 µg/mL (≈ 3540 µM). The “Selectivity Index (SI)” value with Vero cells came out at 8.1. Moreover, the MIC in data set [3] was 25 µg/mL (≈ 150 µM).
`C/C=C/c1ccc(OC)cc1` [Trans-anethol]: the “% Inhibition at 300 μg/mL” value in data set [1] came to 17%.
In the case of `CCCCCCCCCCC=O` [Undecanal], in data set [1], the inhibition at 300 µg/mL was found to be 25%.
Regarding `Cc1ccccc1C(C)C` [o-Cymene], the “% Inhibition at 300 μg/mL” value in data set [1] came to 30%.
For the compound `COc1ccc(C=O)cc1` [p-Anisaldehyde], in data set [1], the inhibition at 300 µg/mL turned out to be 67%. In addition, the IC50 in data set [1] (setting [4]) turned out to be 197 µg/mL (≈ 1450 µM); in the data set with Vero cells (setting [5]), 541 µg/mL (≈ 3970 µM). Further, the “Selectivity Index (SI)” value in the data set with Vero cells came out at 2.7.
Regarding `CC1=CCC(C(C)C)=CC1` [γ-Terpinene], the inhibition at 300 µg/mL in data set [1] was determined as 24%.
As for (R) (−)-Carvone, in data set [1], the “% Inhibition at 300 μg/mL” value was determined as 66% and the “G. duodenalis IC50 (IC95%)” value was 207.0 (162.2–267.3) μg/mL. In addition, the “Vero Cells IC50 (IC95%)” value with Vero cells (setting [5]) is on record as 350.7 (348.4–353.0) μg/mL.

Broadly, the IC50 is the concentration at which inhibition is half-maximal. One may read the % Inhibition as the percentage by which the read-out fell short of the control. A high value points to a strong effect. By log P is commonly meant the decadic logarithm of the partition coefficient of the neutral form, usually between octanol and water. Broadly, the MIC is the lowest concentration found to suppress growth.
